The values below come from PMC7683729, “Altered conformational sampling along an evolutionary trajectory changes the catalytic activity of an enzyme” (Nature Communications, 2020).

In general, Km refers to the concentration of substrate that gives half-maximal velocity. A word on the stoichiometry N: it is the number of molecules, sites or subunits per partner or assembly.

The test system of one data set is T1, AncCDT-5.
T1 construct: ancestral protein ending at Lys235; pDOTS7 vector, His6-tagged, expressed in E. coli delta-pheA; IMAC and SEC; predominantly monomeric
Briefly: end-point spectrophotometric phenylpyruvate formation ([…] nm). The format is biochemical. To be noted: equal volumes of protein in 20 mM Na2HPO4, 150 mM NaCl pH 7.4 and prephenate in 50 mM Na2HPO4 pH 8.0; room temperature (20–25 °C).

Data set [1] concerns the molecule itself. Put plainly: SEC-MALS; 100 μL of each protein loaded at 10 mg mL^-1 on Superdex 200 10/300 GL; 20 mM Na2HPO4, 150 mM NaCl, pH 7.4; 0.5 mL min^-1; single experiment (n = 1).

Turning to `O=C(O)C(=O)CC1(C(=O)O)C=CC(O)C=C1` (centres unmarked) [prephenate], the Michaelis-Menten constant (Km) in the data set on AncCDT-5 was found to be 277 ± 4 µM.

B1: cyclohexadienyl dehydratase from Pseudomonas aeruginosa (PaCDT) (enzyme, UniProt Q01269 26-268, looked up)
chain: QESRLDRILESGVLRVATTGDYKPFSYRTEEGGYAGFDVDMAQRLAESLGAKLVVVPTSWPNLMRDFADDRFDIAMSGISINLERQRQAYFSIPYLRDGKTPITLCSEEARFQTLEQIDQPGVTAIVNPGGTNEKFARANLKKARILVHPDNVTIFQQIVDGKADLMMTDAIEARLQSRLHPELCAVHPQQPFDFAEKAYLLPRDEAFKRYVDQWLHIAEQSGLLRQRMEHWLEYRWPTAHGK
notes: cyclohexadienyl dehydratase, Pseudomonas aeruginosa, UniProt Q01269 residues 26-268; PDB 5HPQ and 6BQE number - 11); source: E. coli K-12 ΔpheA (pDOTS7), IMAC-purified; not shown: His6, N-terminal, kept
Consider B1, for which the “stoichiometry N” value in data set [1] came to 3.
